The results in this text go back to PMC4029172 (eLife, 2014).

pIC50, pKi: −log10 of the molar value. Values after ≈ are worked out from the molar mass of the structure shown. Numbered stars: 1 amine (or outer) side, 2 acyl side, 3 side chain; on linkers, the order of the positions; unused ones are H or OH. Bridge positions count the residues as written; N and C are the ends. Square brackets hold non-standard residues; d marks the D form. Peptide text beside a SMILES is read from it. * marks the point of attachment. X5 = C[C@@H](Oc1ccc([C@H](N[*:1])C(=O)[*:2])cc1)[C@](O)(/C=C/C(=O)[*:3])CBr; X4 = CC(Oc1ccc(C(N[*:1])C(=O)[*:2])cc1)C(O)(C=CC(=O)[*:3])CCl; Pentanoyl(2R-Me,3R-OH,4-Me) = CC(C)[C@@H](O)[C@@H](C)C(=O)*; d(aIle) = CC[C@H](C)[C@@H](N)C(=O)O; d(aThr) = C[C@@H](O)[C@@H](N)C(=O)O; NMeF = CN[CH](Cc1ccccc1)C(=O)O; X3 = CC(C)C(O)C(C)C(=O)*

A word on the pIC50: it is the IC50 on a negative log10 scale, so that one unit is a factor of ten. Broadly, the pKi is the Ki on a negative log10 scale, so that one unit is a factor of ten. Low values mean a large Ki, high ones a small Ki.

Assay [1] deals with Staphylococcus aureus RNAP (Staphylococcus aureus, UniProt Q5HID2+Q5HID3). The assay is described as follows: biochemical.
The subject of assay [2] is Neisseria gonorrhoeae ATCC 19424. The assay can be described thus: microbe, parasite or virus in culture. Format: cell-based. As to conditions: ATCC19424.
Assay [3] relates to Enterobacter cloacae ATCC 13047. The assay is described as follows: microbe, parasite or virus in culture. The settings on record: ATCC13047. In kind it is cell-based.
A further assay addresses Escherichia coli RNAP (Escherichia coli, UniProt P0A8T7+P0A8V2). The assay is described as follows: biochemical.
Assay [4] relates to Haemophilus influenzae ATCC 49247. The assay is described as follows: microbe, parasite or virus in culture. In kind it is cell-based. The settings on record: ATCC49247.
Assay [5] has as its system E. coli D21f2tolC Sal-resistant mutants. The assay can be described thus: Cross-resistance levels of Sal-resistant mutants. The settings on record: wild-type reference of Figure 4B. Format: cell-based, Escherichia coli.
For assay [6], the system named is E. coli D21f2tolC Rif-, Stl-, CBR703-, Myx- and Lpm-resistant mutants. The assay is described as follows: Cross-resistance levels of Rif-, Stl-, CBR703-, Myx- and Lpm-resistant mutants. In kind it is cell-based, Escherichia coli. The settings on record: wild-type reference of Figure 4C.
For assay [7], the target named is T1, E. coli RNAP holoenzyme (Escherichia coli, UniProt P0A8T7+P0A8V2). Format: biochemical.
T1 sequence (P0A7Z4 whole entry): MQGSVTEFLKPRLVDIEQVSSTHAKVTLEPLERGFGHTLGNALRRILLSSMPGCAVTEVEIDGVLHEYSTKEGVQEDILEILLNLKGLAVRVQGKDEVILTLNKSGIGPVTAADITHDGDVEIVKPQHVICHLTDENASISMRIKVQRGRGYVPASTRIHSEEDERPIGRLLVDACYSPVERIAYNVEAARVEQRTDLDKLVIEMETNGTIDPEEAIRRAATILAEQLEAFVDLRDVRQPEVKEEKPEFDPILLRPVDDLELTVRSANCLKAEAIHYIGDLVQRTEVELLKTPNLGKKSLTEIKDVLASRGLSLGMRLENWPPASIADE
T1 sequence (P0A800 whole entry, further chain): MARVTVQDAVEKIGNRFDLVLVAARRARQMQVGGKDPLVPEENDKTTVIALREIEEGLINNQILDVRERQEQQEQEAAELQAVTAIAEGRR
T1 sequence (P0A8T7 whole entry): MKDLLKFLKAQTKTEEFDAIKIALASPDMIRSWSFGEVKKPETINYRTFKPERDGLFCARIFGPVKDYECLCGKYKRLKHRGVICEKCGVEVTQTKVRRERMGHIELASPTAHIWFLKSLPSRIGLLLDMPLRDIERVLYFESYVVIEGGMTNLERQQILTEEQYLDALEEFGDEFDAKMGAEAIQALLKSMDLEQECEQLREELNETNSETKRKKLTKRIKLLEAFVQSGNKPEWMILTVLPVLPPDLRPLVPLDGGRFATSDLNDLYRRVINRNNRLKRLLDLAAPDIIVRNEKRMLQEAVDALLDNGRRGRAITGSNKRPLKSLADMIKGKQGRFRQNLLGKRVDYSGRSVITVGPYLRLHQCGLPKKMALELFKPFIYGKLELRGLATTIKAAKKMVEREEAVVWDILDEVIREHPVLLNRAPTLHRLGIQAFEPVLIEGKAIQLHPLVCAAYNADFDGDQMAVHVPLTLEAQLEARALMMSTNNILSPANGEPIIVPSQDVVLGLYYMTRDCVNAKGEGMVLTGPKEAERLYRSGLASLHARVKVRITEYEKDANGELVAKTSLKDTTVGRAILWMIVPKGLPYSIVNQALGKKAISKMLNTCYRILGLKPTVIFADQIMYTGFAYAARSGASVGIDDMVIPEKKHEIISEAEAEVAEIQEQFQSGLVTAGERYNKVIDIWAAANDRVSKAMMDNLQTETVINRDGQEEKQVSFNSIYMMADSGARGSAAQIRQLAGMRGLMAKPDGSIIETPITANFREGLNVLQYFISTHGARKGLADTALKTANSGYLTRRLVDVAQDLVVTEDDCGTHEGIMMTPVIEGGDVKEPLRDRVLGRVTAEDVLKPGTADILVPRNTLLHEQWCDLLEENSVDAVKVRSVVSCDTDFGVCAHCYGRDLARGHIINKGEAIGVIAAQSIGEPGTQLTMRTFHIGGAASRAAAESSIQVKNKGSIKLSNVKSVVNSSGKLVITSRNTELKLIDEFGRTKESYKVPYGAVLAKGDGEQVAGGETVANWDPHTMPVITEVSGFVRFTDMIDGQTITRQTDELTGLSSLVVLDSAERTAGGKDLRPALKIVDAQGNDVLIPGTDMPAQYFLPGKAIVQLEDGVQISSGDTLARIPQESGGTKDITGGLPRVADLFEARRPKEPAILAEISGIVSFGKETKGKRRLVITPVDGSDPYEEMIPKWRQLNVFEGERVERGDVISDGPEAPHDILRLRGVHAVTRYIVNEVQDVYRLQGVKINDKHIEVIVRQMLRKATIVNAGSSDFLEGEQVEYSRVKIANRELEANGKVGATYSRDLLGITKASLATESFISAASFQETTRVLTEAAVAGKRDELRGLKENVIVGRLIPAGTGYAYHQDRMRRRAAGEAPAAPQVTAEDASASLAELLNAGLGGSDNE
T1 sequence (P00579 whole entry, further chain): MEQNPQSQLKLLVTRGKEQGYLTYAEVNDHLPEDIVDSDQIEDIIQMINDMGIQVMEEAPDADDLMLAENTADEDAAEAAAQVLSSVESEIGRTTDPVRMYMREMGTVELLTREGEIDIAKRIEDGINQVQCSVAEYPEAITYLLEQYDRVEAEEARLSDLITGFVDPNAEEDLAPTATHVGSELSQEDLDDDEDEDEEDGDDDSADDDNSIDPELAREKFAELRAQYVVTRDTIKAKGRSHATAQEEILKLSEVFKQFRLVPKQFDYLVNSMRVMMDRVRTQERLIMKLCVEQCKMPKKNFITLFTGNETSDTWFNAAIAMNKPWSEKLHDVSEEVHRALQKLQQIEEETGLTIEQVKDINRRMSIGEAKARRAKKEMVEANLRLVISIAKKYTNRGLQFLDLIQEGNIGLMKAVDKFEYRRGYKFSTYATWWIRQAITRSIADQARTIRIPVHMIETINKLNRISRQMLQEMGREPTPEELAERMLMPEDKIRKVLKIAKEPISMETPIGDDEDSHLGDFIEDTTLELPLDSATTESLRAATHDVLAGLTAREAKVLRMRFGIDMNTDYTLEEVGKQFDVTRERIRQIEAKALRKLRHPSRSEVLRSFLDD
T1 sequence (P0A8V2 whole entry): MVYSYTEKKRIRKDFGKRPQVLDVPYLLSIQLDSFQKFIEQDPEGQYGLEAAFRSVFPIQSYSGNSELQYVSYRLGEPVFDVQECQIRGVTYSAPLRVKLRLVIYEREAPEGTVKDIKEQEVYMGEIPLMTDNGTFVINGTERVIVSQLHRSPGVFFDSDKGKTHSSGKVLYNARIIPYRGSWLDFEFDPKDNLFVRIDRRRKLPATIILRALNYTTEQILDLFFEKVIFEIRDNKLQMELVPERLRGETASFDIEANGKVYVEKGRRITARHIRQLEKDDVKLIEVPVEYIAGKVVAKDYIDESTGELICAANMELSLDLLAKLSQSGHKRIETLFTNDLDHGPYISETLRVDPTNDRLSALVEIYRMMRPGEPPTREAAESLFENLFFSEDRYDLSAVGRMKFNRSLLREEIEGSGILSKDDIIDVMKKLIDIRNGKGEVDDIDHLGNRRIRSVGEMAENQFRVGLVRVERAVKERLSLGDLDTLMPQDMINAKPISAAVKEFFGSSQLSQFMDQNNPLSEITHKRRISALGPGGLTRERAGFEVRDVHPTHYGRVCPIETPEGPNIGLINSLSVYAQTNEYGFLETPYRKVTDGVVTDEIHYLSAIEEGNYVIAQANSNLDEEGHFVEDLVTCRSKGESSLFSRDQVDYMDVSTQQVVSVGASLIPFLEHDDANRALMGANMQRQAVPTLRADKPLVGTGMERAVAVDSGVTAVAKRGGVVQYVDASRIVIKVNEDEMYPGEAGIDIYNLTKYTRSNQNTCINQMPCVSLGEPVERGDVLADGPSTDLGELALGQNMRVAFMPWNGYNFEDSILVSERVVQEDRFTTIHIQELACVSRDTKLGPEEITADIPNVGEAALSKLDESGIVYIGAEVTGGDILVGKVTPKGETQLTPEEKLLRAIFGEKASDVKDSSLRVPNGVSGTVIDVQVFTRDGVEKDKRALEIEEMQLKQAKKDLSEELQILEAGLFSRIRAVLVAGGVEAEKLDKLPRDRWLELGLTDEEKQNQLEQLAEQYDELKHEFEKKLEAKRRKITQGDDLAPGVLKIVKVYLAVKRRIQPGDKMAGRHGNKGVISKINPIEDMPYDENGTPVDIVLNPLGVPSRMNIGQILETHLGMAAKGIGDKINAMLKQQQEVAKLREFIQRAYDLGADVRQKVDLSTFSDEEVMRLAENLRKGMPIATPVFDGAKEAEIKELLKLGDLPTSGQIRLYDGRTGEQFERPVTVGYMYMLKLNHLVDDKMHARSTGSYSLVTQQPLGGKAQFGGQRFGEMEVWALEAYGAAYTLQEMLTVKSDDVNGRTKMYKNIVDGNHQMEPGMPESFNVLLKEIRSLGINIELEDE
Assay [8] has as its system Pseudomonas aeruginosa ATCC 10145. The assay can be described thus: microbe, parasite or virus in culture. In kind it is cell-based. The settings on record: ATCC10145.
Assay [9] deals with E. coli D21f2tolC. The assay is described as follows: Frequency of spontaneous Sal-resistant mutants. In kind it is cell-based, Escherichia coli. The settings on record: E. coli D21f2tolC plated on agar containing Sal; listed as Sal.
For assay [10], the target named is Thermus thermophilus RNAP (Thermus thermophilus, UniProt Q8RQE8+Q8RQE9). The assay can be described thus: biochemical.
The subject of assay [11] is E. coli D21f2tolC plasmid-borne induced Sal-resistant mutants.
The target of assay [12] is T1, E. coli RNAP holoenzyme. The assay is described as follows: biochemical.
For assay [13], the system named is E. coli D21f2tolC spontaneous Sal-resistant mutants. The assay can be described thus: Resistance levels of spontaneous Sal-resistant mutants. As to conditions: for resistance level, all mutants: all 21 spontaneous Sal-resistant substitutions. In kind it is cell-based, Escherichia coli.
The target of assay [14] is T1, E. coli RNAP holoenzyme. In kind it is biochemical. The source holds these as a separate data set.
Assay [15] deals with E. coli D21f2tolC. The assay can be described thus: Resistance rates (fluctuation assays). As to conditions: each agent at 2 × MIC.
Assay [16] deals with Moraxella catarrhalis ATCC 25238. The assay can be described thus: microbe, parasite or virus in culture. In kind it is cell-based. The settings on record: ATCC25238.
The subject of assay [17] is Bacillus anthracis Vollum 1B. The assay can be described thus: microbe, parasite or virus in culture. Format: cell-based. The settings on record: VOLLUM1B.
Assay [18] has as its target T1, E. coli RNAP holoenzyme. Format: biochemical. This is another data set of the same source.
The test system of assay [19] is wild-type or ΔTL E. coli RNAP core enzyme. In kind it is biochemical, Escherichia coli.
Assay [20] deals with T1, E. coli RNAP holoenzyme. In kind it is biochemical. The source holds these as a separate data set.
Assay [21] deals with E. coli D21f2tolC. The assay is described as follows: Macromolecular synthesis in bacterial cells in culture. In kind it is cell-based, Escherichia coli. As to conditions: 2 x MIC; 0-30 min. As to the method: Macromolecular synthesis assays were performed essentially as in [Cotsonas King and Wu, 2009]. E. coli D21f2tolC ([Fralick and Burns-Keliher, 1994]) was cultured in 10 ml LB broth ([Sambrook and Russell, 2001]) at 37°C with shaking until OD600 = 0.4–0.8, and cultures were diluted with LB broth to OD600 = 0.167. Aliquots (90 µl) were dispensed into wells of a 96-well plate; were supplemented with 7 µl of pre-warmed 4 µCi/ml [^14C]-thymidine, 10 µCi/ml [^14C]-uracil, or 30 µCi/ml [^14C]-amino acid mix (PerkinElmer, Waltham, MA); were incubated 10 min at 37°C with shaking; were supplemented with 3 µl 3.3 µg/ml SalA in methanol (final concentration = 2 × MIC), 3 µl 13 µg/ml Rif in methanol (final concentration = 2 × MIC), or 3 µl solvent blank; and incubated at 37°C with shaking. At time points 0, 10, 20, and 30 min after the addition of SalA, Rif, or solvent blank, rows of samples were transferred to a second 96-well plate, containing 100 µl ice-cold 10% trichloroacetic acid (TCA) in each well, and the second plate was incubated on ice. 1 hr after the final time point, TCA precipitates were collected by filtration onto glass-fiber filters (Filtermat A; PerkinElmer; pre-rinsed twice with 5% TCA), washed with 2 × ∼300 µl 5% TCA, washed with 3 × ∼300 µl water, and washed with 2 × ∼300 µl 10% ethanol, using a Packard FilterMate 196 Cell Harvester with Matrix Filter upper head assembly (PerkinElmer). Filters were dried under a heat lamp, wrapped in a single layer of plastic wrap, and exposed to a storage phosphor screen for 18–19 hr, and analyzed by storage-phosphor scanning (Typhoon; GE Healthcare).

For another assay, the system named is E. coli RNAP core enzyme. Format: biochemical, Escherichia coli.
The next assay has as its system Burkholderia mallei CHN7. The assay is described as follows: microbe, parasite or virus in culture. Format: cell-based.
In a further assay the test system is Yersinia pestis CO92. The assay can be described thus: microbe, parasite or virus in culture. In kind it is cell-based.

For `CC[C@H](C)[C@H]1NC(=O)[C@@H](NC(=O)[C@H](C)[C@H](O)C(C)C)[C@@H](C)OC(=O)[C@@H]2COC(=O)CNC(=O)/C=C/[C@](O)(CBr)[C@@H](C)Oc3ccc(cc3)[C@H](NC1=O)C(=O)N(C)[C@@H](Cc1ccccc1)C(=O)N[C@H]([C@@H](C)O)C(=O)N2` [Sal-Br] ({Pentanoyl(2R-Me,3R-OH,4-Me)}-T[d(aIle)][X5][NMeF][d(aThr)]S; ester 1-C; linker 3-6 via G), the pIC50 was 6.15 in assay [1] and 6.05 at Escherichia coli RNAP. The MIC turned out to be 25 µg/mL (≈ 22.7 µM) in assay [2], 3.13 µg/mL (≈ 2.84 µM) in assay [3] and 6.25 µg/mL (≈ 5.68 µM) in assay [4].
Turning to `ONC(=Nc1ccccc1)c1cccc(C(F)(F)F)c1` [CBR703], the MICwild-type in assay [5] and in assay [6] was 6.25 µg/mL throughout.
Consider `CC[C@@H](C)[C@@H]1NC(=O)[C@H](NC(=O)[C@@H](C)[C@@H](O)C(C)C)[C@H](C)OC(=O)[C@H]2COC(=O)CNC(=O)/C=C/[C@@]3(CO3)[C@H](C)Oc3ccc(cc3)[C@H](NC1=O)C(=O)N(C)[C@H](Cc1ccccc1)C(=O)N[C@@H]([C@H](C)O)C(=O)N2` [SalA, Salinamide A], for which the pIC50 in assay [1] was 6.70; on Escherichia coli RNAP, 6.70; in [10] it was below 4.00. For the same compound, the MIC in assay [2] was found to be 25 µg/mL (≈ 24.5 µM); in [3], 1.56 µg/mL (≈ 1.53 µM); in assay [8], 50 µg/mL (≈ 49 µM); in assay [16] it was 50 µg/mL (≈ 49 µM); in assay [17], 25 µg/mL (≈ 24.5 µM); against Burkholderia mallei CHN7, 25 µg/mL (≈ 24.5 µM). Moreover, the MIC in assay [4] was 6.25 µg/mL (≈ 6.13 µM); against Yersinia pestis CO92, 50 µg/mL (≈ 49 µM). In addition, the MICwild-type in [5], in [11] and in assay [6] was 0.049 µg/mL in each case. Further, the “effect on nucleotide addition in transcription elongation” value (shortened to “effect … in transcription elongation”) at E. coli RNAP holoenzyme [7] was “inhibits nucleotide addition in transcription elongation”. Moreover, in the assay with E. coli D21f2tolC [9], the “frequency of spontaneous mutation to Sal-resistance” value is ~1 × 10^−9. In addition, the pKi on E. coli RNAP holoenzyme [12] was 6.70. Besides, the mode of inhibition entry at E. coli RNAP holoenzyme [12] is recorded as “noncompetitive”. Also, the “resistance level, all mutants” value in [13] was at least 16 fold. In addition, the “resistance level, nine high-level mutants” value in assay [13] ({}) is recorded as at least 128 fold. At E. coli RNAP holoenzyme [14], the “effect on nucleotide addition in de novo transcription initiation” value is listed as “inhibits all nucleotide-addition steps”. Moreover, in the assay with E. coli D21f2tolC [15] (listed as Sal), the “resistance rate (per generation)” value is given as 2 × 10^−9 per generation. For the same compound, on E. coli RNAP holoenzyme [18], the “effect on nucleotide addition in primer-dependent transcription initiation” value is “inhibits all nucleotide-addition steps”. Besides, in assay [19], the “requirement of RNAP trigger loop for inhibition” value is “does not require the RNAP active-center subregion referred to as the ‘trigger loop’”. Further, on E. coli RNAP holoenzyme [20], the “effect on formation of RNAP-promoter open complex (RPo)” value was “does not inhibit formation of a heparin-resistant RNAP-promoter open complex”. In the assay with E. coli D21f2tolC [21], the “effect on DNA synthesis ([14C]-thymidine incorporation)” value is “no effect on DNA synthesis”. In addition, in the assay with E. coli D21f2tolC [21], the “effect on RNA synthesis ([14C]-uracil incorporation)” value is reported as “inhibits RNA synthesis at the first time point following addition”. Besides, the “effect on protein synthesis ([14C]-amino acids incorporation)” value with E. coli D21f2tolC [21] is recorded as “inhibits protein synthesis at later time points”. In addition, the effect on pyrophosphorolysis result in the assay on E. coli RNAP core enzyme is recorded as “inhibits not only the forward reaction of nucleotide addition but also the reverse reaction, pyrophosphorolysis”.
lipiarmycin [Lpm]: the MICwild-type in [5] and in assay [6] was 1.56 µg/mL each time. Moreover, the “effect … in transcription elongation” value on E. coli RNAP holoenzyme [7] is listed as “do not inhibit transcription elongation”.
In the case of `CNC(=O)[C@@H](C)[C@H]1C(=O)/C(=C(O)/C=C/C(C)=C/[C@@H](C)[C@H]2O[C@@]3(C)O[C@H](C=C[C@@]34CO4)[C@@H]2C)C(=O)N1[C@@H]1CC[C@H](O)[C@H](C)O1` [Stl, streptolydigin], the MICwild-type in [5] was 3.13 µg/mL; in assay [6], 1.56 µg/mL.
With `CO[C@H]1/C=C/O[C@@]2(C)Oc3c(C)c(O)c4c(O)c(c(/C=N/N5CCN(C)CC5)c(O)c4c3C2=O)NC(=O)/C(C)=C\C=C\[C@H](C)[C@H](O)[C@@H](C)[C@@H](O)[C@@H](C)[C@H](OC(C)=O)[C@@H]1C` [Rif, rifampin], the MICwild-type in assay [5] and in assay [6] was 0.20 µg/mL each time. Besides, the “effect … in transcription elongation” value at E. coli RNAP holoenzyme [7] is given as “do not inhibit transcription elongation”. Besides, at E. coli RNAP holoenzyme [18], the “effect on nucleotide addition in primer-dependent transcription initiation” value was “does not inhibit the first nucleotide-addition step”.
For the compound myxopyronin, the MICwild-type in assay [5] and in assay [6] was 0.20 µg/mL throughout. In addition, the “effect … in transcription elongation” value on E. coli RNAP holoenzyme [7] was “do not inhibit transcription elongation”. For the same compound, the “resistance rate (per generation)” value with E. coli D21f2tolC [15] is recorded as 3 × 10^−10 per generation.
`CCC(C)C1NC(=O)C(NC(=O)C(C)C(O)C(C)C)C(C)OC(=O)C2COC(=O)CNC(=O)C=CC(O)(CCl)C(C)Oc3ccc(cc3)C(NC1=O)C(=O)N(C)C(Cc1ccccc1)C(=O)NC(C(C)O)C(=O)N2` (stereo not shown) [SalB, salinamide B] (X3-TI[X4][NMeF]TS; ester 1-C; linker 3-6 via G; configuration not given here): the pIC50 in [1] is 6.10; against Escherichia coli RNAP it was 6.30. Also, the MIC in [2] was 25 µg/mL (≈ 23.7 µM); in assay [8], above 50 µg/mL; in assay [17], above 50 µg/mL; with Burkholderia mallei CHN7, 50 µg/mL (≈ 47.3 µM); against Yersinia pestis CO92, above 50 µg/mL. In addition, the MICwild-type in assay [11] was found to be 0.20 µg/mL. Also, the “resistance level, all mutants” value in assay [13] is on record as at least 16 fold.
